Laboratory results: US4610994A, “1,2,3-triazole anticonvulsant drugs” (priority 1984, dated 1986)
Several values for one entry are separate records, joined by “and”; a condition that tells them apart may be missing. Equal values may be shown once. Entries after “also recorded” stand apart in the source; their conditions may differ. Read-outs that look alike come from different tables or passages of the source.

Legend:
[1] = test system: maximal electro-shock seizure (MES) and subcutaneous pentylenetetrazole (Metrazole) seizure threshold (scMet); assay: Phase I anticonvulsant screening (MES test and scMet test); format: in vivo, mouse; settings: at effective dose levels (Class I) or 300 mg/kg (8, 13)
[2] = test system: subcutaneous Bicuculline seizures; assay: subcutaneous Bicuculline Seizure Threshold Test (sc Bic) in mice; format: in vivo, mice (male albino, CF No. 1); settings: mice i.p.; Compound 10 up to 300 mg/kg
Procedure: (§3) All animals were allowed free access to both food (S/L Custom Lab Diet-7) and water, except when they were removed from their cages for the experimental procedure.
(§4) The drugs were administered either orally or intraperitoneally in a volume of 0.01 ml/g body weight in mice and 0.04 ml/10 g in rats. All tests were conducted at the previously determined time of peak drug effect.
(§5) The profile of anticonvulsant activity for each substance was established by five tests: one electrical and four chemical. The electrical test employed was the maximal electroshock seizure pattern test. […] Except for the sc Strych Test, these tests measure the ability of anticonvulsants to afford complete protection against threshold seizures induced by the subcutaneous injection of the CD97 of the convulsant agent.
(§6) All convulsants were administered subcutaneously into a loose fold of skin on the back of the neck in a volume of 0.01 ml/g body weight in mice; Metrazol was injected in a volume of 0.02 ml/10 g body weight in rats. The convulsant drugs were administered at the previously determined time of peak anticonvulsant action of the drug under study. […] Except for strychnine, absence of a five-second episode of clonic spasms (threshold seizure) was taken as protection. In the case of strychnine, complete abolition of the hindleg tonic extension was taken as protection.

[3] = test system: subcutaneous Picrotoxin seizures; assay: subcutaneous Picrotoxin Seizure Threshold Test (sc Pic) in mice; format: in vivo, mice (male albino, CF No. 1); settings: mice i.p.; Compound 10 up to 300 mg/kg
Procedure: as §3, §4, §5, §6

[4] = test system: subcutaneous Strychnine seizures; format: in vivo, mice (male albino, CF No. 1); settings: mice i.p.; Compound 10 up to 300 mg/kg
Procedure: as §3, §4, §5, §6

[5] = loss of righting reflex (HD50) in mice i.p.; parameters: species or system mice (male albino, CF No. 1); settings: mouse, in vivo, ip
Procedure: (§7) The profile of toxicity for each test drug was established by the following procedures: Firstly, the minimal neurotoxic dose (TD50) was determined by the rotorod procedure at the time of peak neurotoxic effect. When a normal mouse is placed on a knurled rod one inch in diameter rotating at a speed of six rpm it can maintain its equilibrium for long periods of time. Neurological deficit is indicated by inability of the mouse to maintain its equilibrium for one minute in each of three trials on this rotating rod. […] The HD50 represents the median dose at which 50% of animals lose their righting reflex.

[6] = five-day oral LD3 in rats; format: in vivo
Procedure: (§1) Phase VII studies of Compound 10 included five-day LD3, five-day tolerance studies, and effect of chronic administration on the liver microsomal enzyme system. The five-day oral LD3 of Compound 10 is <300 mg/kg in male rats and >300 mg/kg in female rats.
(§2) Thus, the estimated five-day LD3 for Compound 10 is <300 mg/kg in male rats and >300 but <1000 mg/kg in female rats.

[7] = test system: maximal electroshock seizures; assay: five-day tolerance study in rats (MES test); format: in vivo
Procedure: as §1, §2

hexobarbital sleep time = hexobarbital sleep time after chronic administration in rats; format: in vivo
Procedure: as §1

cytochrome P-450 = assay: effect of chronic administration on liver microsomal cytochrome P-450; format: in vivo, rats
Procedure: as §1, §2

[8] = test system: p-nitroanisole O-demethylase; assay: effect of chronic administration on liver p-nitroanisole O-demethylase; format: in vivo, rats
Procedure: as §1, §2

cytochrome C reductase = assay: effect of chronic administration on liver cytochrome C reductase; format: in vivo, rats
Procedure: as §1, §2

[9] = oral absorption in mice from oral/i.p. ratios; format: in vivo
Description: The extent of oral absorption can be determined from the ratio of the oral ED50/i.p. […] The oral TD50/i.p. TD50 and oral ED50/i.p.

in vivo [10] = settings: mouse, po
Procedure: as §3, §4, §5

in vivo [11] = settings: mouse
Procedure: as §3, §4, §5, §6

in vivo [12] = settings: mouse; remark: listed apart in the source
Procedure: as §3, §4
(§8) The profile of toxicity for each test drug was established by the following procedures: Firstly, the minimal neurotoxic dose (TD50) was determined by the rotorod procedure at the time of peak neurotoxic effect. When a normal mouse is placed on a knurled rod one inch in diameter rotating at a speed of six rpm it can maintain its equilibrium for long periods of time. Neurological deficit is indicated by inability of the mouse to maintain its equilibrium for one minute in each of three trials on this rotating rod. Neurological deficit in rats is indicated by ataxia, loss of placing response and muscle tone.

in vivo [13] = settings: mouse, ip
[14] = 24-hour lethality (LD50) in mice i.p.
[15] = test system: maximal electroshock seizures; assay: maximal electroshock seizure (MES) pattern test in mice; settings: for ED97 / Safety ratio (TD3/ED97): MES
Procedure: as §3, §4, §5

[16] = maximal electroshock seizure (MES) pattern test in rats; settings: rat, in vivo, po, Safety ratio (TD3/ED97), rats, MES
Procedure: as §3, §4, §5

[17] = test system: maximal electroshock seizures; assay: as above
Procedure: as §3, §4, §5

[18] = test system: subcutaneous Metrazol seizures; assay: subcutaneous Metrazol Seizure Threshold Test (sc Met) in mice; settings: for ED97: sc Met
Procedure: as §3, §4, §5, §6

[19] = test system: subcutaneous Metrazol seizures; assay: subcutaneous Metrazol Seizure Threshold Test (sc Met) in rats
Procedure: as §3, §4, §5, §6

[20] = Phase III toxicity profile (overt signs and symptoms) in mice i.p.
Procedure: as §7

[21] = minimal neurotoxicity (ataxia, loss of placing response and muscle tone) in rats; settings: for TD3: oral
Procedure: as §3, §4, §8

[22] = rats, acute (single dose) control group
[23] = mice, i.p., 95% confidence interval
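Wherever Rotorod TD50 is given: mice on rotorod: neurological deficit scored when the animal cannot keep balance for 1 min in every one of three trials on a 1-inch knurled rod turning at 6 rpm.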
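Wherever Rotorod toxicity is given: mice on rotorod: neurological deficit scored when the animal cannot keep balance for 1 min in every one of three trials on a 1-inch knurled rod turning at 6 rpm.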
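Wherever TPE by the rotorod test is given: mice on rotorod: neurological deficit scored when the animal cannot keep balance for 1 min in every one of three trials on a 1-inch knurled rod turning at 6 rpm.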
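Wherever time of peak effect (TPE), rotorod toxicity test is given: mice on rotorod: neurological deficit scored when the animal cannot keep balance for 1 min in every one of three trials on a 1-inch knurled rod turning at 6 rpm.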

SMILES: Clc1ccc(-n2nncc2-c2cccnc2)cc1 [Compound 10, 1-(para-chlorophenyl)-5-(3-pyridyl)-1H-1,2,3-triazole]
- signs of neurological deficit [1]: do not exhibit significant signs of neurological deficit
- effectiveness by the sc Bic test [2]: ineffectiveness; also recorded: ineffective in doses up to 300 mg/kg
- effectiveness by the sc Pic test [3]: ineffectiveness; also recorded: ineffective in doses up to 300 mg/kg
- effectiveness by the sc Strych test [4]: ineffectiveness; also recorded: ineffective in doses up to 300 mg/kg
- HD50 (righting reflex) [5]: 525.98(473.77-564.48) mg/kg
- time of peak toxicity (TPE), righting reflex [5]: 6 h
- TD50 ([5]; HD50 (righting reflex)): 526 mg/kg
- five-day oral LD3 ([6]; male rats): < 300 mg/kg
- five-day oral LD3 ([6]; rat, in vivo, po, 7200 min): > 300 mg/kg
- toxicity, male vs female rats ([6]; rats, chronic): more toxic in male than in female rats
- MES test, animals protected ([7]; acute (single dose, 50 mg/kg) control group, 50 mg/kg): 6 of 8 protected and 6 of 8 rats protected
- MES test, animals protected ([7]; chronic-treated group, five daily doses of 50 mg/kg): 1 of 8 protected
- tolerance to the anticonvulsant effects ([7]; five days): significant tolerance occurs within this period of time
- hexobarbital sleep time (hexobarbital sleep time; acute (single dose) control group): 16.3 ± 1.2 min
- hexobarbital sleep time (hexobarbital sleep time; chronic-treated group): 15.0 ± 2.0 min
- cytochrome P-450 (cytochrome P-450; chronically treated rats): 0.988±0.096 n moles/mg
- cytochrome P-450 (cytochrome P-450; [22]): 0.720±0.054 n moles/mg
- increase in liver cytochrome P-450 (cytochrome P-450; rats, chronic vs acute): 37%
- p-nitroanisole O-demethylase ([8]; chronically treated rats): 0.640±0.098 n moles/mg/min
- p-nitroanisole O-demethylase [8, 22]: 0.261±0.035 n moles/mg/min
- increase in p-nitroanisole O-demethylase ([8]; rats, chronic vs acute): 145%
- cytochrome C reductase (cytochrome C reductase; chronically treated rats): 219±24 n moles/mg/min
- cytochrome C reductase (cytochrome C reductase; [22]): 157±11 n moles/mg/min
- increase in cytochrome C reductase (cytochrome C reductase; rats, chronic vs acute): 40%
- oral absorption [9]: adequately absorbed in mice after oral administration
- toxicity (300 mg/kg, four hours after administration): one of two animals
- Rotorod toxicity (300 mg/kg, thirty minutes after administration): all four animals
- time of peak effect (TPE), rotorod toxicity test (mice, i.p.): 60 min
- TD3 (mice, i.p., MES): 175
- TD3 (mice, i.p., sc Met): 175
- Rotorod TD50 [23]: 244.51(221.82-275.17) mg/kg and 244.51(222.82-275.17) mg/kg
- TD3 (mice, oral, MES): 173
- TD3 (mice, oral, sc Met): 173
- TPE by the rotorod test (mice, p.o.): six
- TD50 (mice, p.o., 95% confidence interval): 729.08 (492.47-1009.17) mg/kg
- selectivity ratio (in vivo [10]): 5.54
- selectivity ratio (in vivo [11]; ip): 9.07
- selectivity ratio (in vivo [11]; po): 5.37
- TD50 (in vivo [12]; ip): 245 mg/kg
- TD50 (in vivo [12]; po): 729 mg/kg
- LD50 at 24 h (in vivo [13]): 569 mg/kg
- LD50/HD50 ratio [14]: 1.08
- LD50/TD50 ratio [14]: 2.33
- oral ED50/i.p. ED50 ratio, MES ([15]; mice): 2.00
- toxicity of doses giving 97% protection, MES or sc Met test ([15]; mice and rats, oral): toxic doses are required to protect 97% of animals
- time of peak effect (TPE), anticonvulsant tests ([15]; mice i.p., anticonvulsant tests (MES, sc Met)): 30 min
- mice protected in the MES test at nontoxic doses ([15]; mice, i.p.): 97%
- protective index (TD50/ED50) by the MES test ([15]; mice, i.p.): 3.72
- ED97 ([15]; mice, i.p.): 145
- Safety ratio (TD3/ED97) ([15]; mice, i.p.): 1.2
- MES ED50 [15, 23]: 65.76 mg/kg and 65.76(51.82-83.19) mg/kg
- ED97 ([15]; mice, oral): 275
- Safety ratio (TD3/ED97) ([15]; mice, oral): 0.6
- MES ED50 ([15]; mice, p.o.): 131.67 mg/kg
- potency relative to phenobarbital, MES test ([15]; mice, p.o.): 1/6
- potency relative to phenytoin, MES test ([15]; mice, p.o.): 1/15
- selectivity ratio [16]: 0.07
- ED97 ([17]; Rattus norvegicus, po): 215 mg/kg
- ED50 ([17]; Rattus norvegicus, po, read-out: MES ED50): 49.9 mg/kg
- 97% protection by the MES and sc Met tests in nontoxic doses ([17]; rats, oral): do not provide 97% protection
- TPE by the MES and sc Met tests ([17]; rats, p.o.): four
- oral ED50/i.p. ED50 ratio, sc Met ([18]; mice): 5.03
- toxicity of doses giving 97% protection, sc Met test ([18]; mice, i.p.): toxic doses are required
- ED97 ([18]; mice, i.p.): 900
- sc Met ED50 [18, 23]: 26.95 mg/kg and 26.95(9.89-55.08) mg/kg
- ED97 ([18]; mice, oral): 980
- sc Met ED50 ([18]; mice, p.o.): 135.67 mg/kg
- potency by the sc Met test in mice relative to rats ([18]; oral administration): about 21/2
- ED97 ([19]; oral, sc Met): > 10000
- Safety ratio (TD3/ED97) ([19]; oral, sc Met): 0.002
- sc Met ED50 ([19]; p.o.): 329.18 mg/kg
- Profile of acute toxicity, 1 x TD50 ([20]; 1TD50): decreased motor activity, rotorod toxicity, ataxia, and decreased respiration; also recorded: normal after 24 hours; also recorded: normal at 24 hrs
- Profile of acute toxicity, 2 x TD50 ([20]; 2TD50): cyanosis, muscle relaxation, and loss of righting reflex; also recorded: dead after 24 hours
- Profile of acute toxicity, 4 x TD50 ([20]; 4TD50): displayed all the symptoms characteristic of those given 1TD50 and 2TD50's of the test drug; however, the symptoms were more intense; also recorded: dead 4 hours after drug administration and the other was dead at 24 hours
- neurotoxicity in rats relative to mice ([21]; oral administration): approximately 16 times
- TD50 ([21]; rat, in vivo, po): 44.5 mg/kg
- TD3 ([21]; rats, MES): 16
- TD3 ([21]; rats, sc Met): 16
- TPE by the toxicity test ([21]; rats, p.o.): two
- TD50 ([21]; rats, p.o., 95% confidence interval): 44.48 (32.78-62.61) mg/kg
